Assay results reported in ChEMBL document CHEMBL1909046, “DrugMatrix in vitro pharmacology data”.

How the values were obtained:
[1] = biological target: Aldo-keto reductase family 1 member B1 (Rattus norvegicus, UniProt P07943); assay: biochemical; format: tissue-based, Lens of camera-type eye;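 further: inhibition of aldose reductase enzyme activity, measured with DL-glyceraldehyde as the substrate; in other assays of this panel Not Active means under 50% inhibition at 10 µM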
[2] = DRUGMATRIX: Calcium Channel Type L, Benzothiazepine radioligand binding (ligand: [3H] Diltiazem); format: cell membranes, Rattus norvegicus, Wistar, Brain, Membrane; conditions: Not Active = under 50% inhibition at 10 µM
D(4) dopamine receptor = biological target: T1, D(4) dopamine receptor (Homo sapiens, UniProt P21917); assay: DRUGMATRIX: Dopamine D4.2 radioligand binding (ligand: [3H] Spiperone); format: cell membranes, CHO-K1, Membrane; conditions: cho-k1; Not Active = under 50% inhibition at 10 µM
T1 sequence (P21917 whole entry): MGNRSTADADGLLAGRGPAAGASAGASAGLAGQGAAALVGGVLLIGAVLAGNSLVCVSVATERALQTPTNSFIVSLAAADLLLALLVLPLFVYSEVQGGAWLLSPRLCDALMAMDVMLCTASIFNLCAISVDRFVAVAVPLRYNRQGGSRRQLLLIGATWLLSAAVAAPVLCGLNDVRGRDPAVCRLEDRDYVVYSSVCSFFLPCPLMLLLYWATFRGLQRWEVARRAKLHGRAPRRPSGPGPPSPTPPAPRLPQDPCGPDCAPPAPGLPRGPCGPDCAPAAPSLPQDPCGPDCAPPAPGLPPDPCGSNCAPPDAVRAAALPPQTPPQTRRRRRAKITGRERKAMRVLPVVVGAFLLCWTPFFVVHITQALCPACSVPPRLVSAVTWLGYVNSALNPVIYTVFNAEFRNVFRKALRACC

[3] = DRUGMATRIX: Leukotriene, BLT (LTB4) radioligand binding (ligand: [3H]LTB4); format: cell membranes, Membrane; conditions: u-937; Not Active = under 50% inhibition at 10 µM
[4] = biological target: T2, Cysteinyl leukotriene receptor 1 (Homo sapiens, UniProt Q9Y271); format: cell membranes, CHO-K1, Membrane; conditions: cho-k1; further: in other assays of this panel Not Active means under 50% inhibition at 10 µM
T2 sequence (Q9Y271 whole entry): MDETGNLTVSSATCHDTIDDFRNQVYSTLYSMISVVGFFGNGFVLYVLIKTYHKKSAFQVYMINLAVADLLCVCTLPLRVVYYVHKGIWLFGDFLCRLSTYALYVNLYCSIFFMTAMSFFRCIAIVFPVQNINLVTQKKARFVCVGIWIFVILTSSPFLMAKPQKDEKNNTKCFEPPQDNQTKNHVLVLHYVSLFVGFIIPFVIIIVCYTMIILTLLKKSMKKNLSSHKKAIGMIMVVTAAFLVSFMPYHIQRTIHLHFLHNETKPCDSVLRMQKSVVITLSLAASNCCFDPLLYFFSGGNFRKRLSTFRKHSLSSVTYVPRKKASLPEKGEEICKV

[5] = biological target: Mitogen-activated protein kinase 1 (Homo sapiens, UniProt P28482); assay: DRUGMATRIX: Protein Serine/Threonine Kinase, ERK2 enzyme inhibition (substrate: Myelin Basic Protein); design: species or system Escherichia coli; conditions: Not Active = under 50% inhibition at 10 µM
Chain of Mitogen-activated protein kinase 1 (P28482 whole entry): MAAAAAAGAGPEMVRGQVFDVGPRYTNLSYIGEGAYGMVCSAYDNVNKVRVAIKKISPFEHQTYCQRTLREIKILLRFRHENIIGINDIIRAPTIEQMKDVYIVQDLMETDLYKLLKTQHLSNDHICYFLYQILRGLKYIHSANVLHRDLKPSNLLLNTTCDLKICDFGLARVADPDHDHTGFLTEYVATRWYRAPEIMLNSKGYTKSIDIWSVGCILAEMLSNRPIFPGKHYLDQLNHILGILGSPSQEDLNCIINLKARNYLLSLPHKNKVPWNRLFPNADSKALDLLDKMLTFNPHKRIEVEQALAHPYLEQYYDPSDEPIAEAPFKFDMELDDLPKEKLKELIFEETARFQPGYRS

Row | SMILES | IC50 [1] | IC50 [2] | Ki [2] | IC50 (D(4) dopamine receptor) | IC50 [3] | Ki [3] | IC50 [4] | IC50 [5] | IC50 ([2]; read-out: IC50) | Ki ([2]; read-out: Ki) | IC50 ([5]; read-out: IC50) | IC50 ([1]; read-out: IC50)
1 | CO[C@@H]1[C@@H](OC)[C@H](C)[C@@](O)(CC(=O)O)O[C@H]1[C@H](C)[C@H]1O[C@@]2(CC[C@@](C)([C@H]3CC[C@@](C)([C@@H]4O[C@@H]([C@H]5O[C@](C)(O)[C@H](C)C[C@@H]5C)C[C@@H]4O[C@@H]4C[C@H](OC)[C@@H](OC)[C@H](C)O4)O3)O2)C[C@H](O)[C@H]1C.N [MADURAMICIN] | Not Active | Not Active | Not Active | Not Active | Not Active | Not Active | Not Active | Not Active |  |  |  | 
2 | CCOC(=O)C1=C(C)NC(C)=C(C(=O)OCC)C1c1ccccc1/C=C/C(=O)OC(C)(C)C [LACIDIPINE] | Not Active |  |  | Not Active | Not Active | Not Active | Not Active | Not Active | 0.00545 µM | 0.00484 µM |  | 
3 | CC(C)(C)NC[C@H](O)COc1cccc2c1CCCC2=O [LEVOBUNOLOL] | Not Active | Not Active | Not Active | Not Active | Not Active | Not Active | Not Active | Not Active |  |  |  | 
4 | Cc1[nH]c(=O)c(C#N)cc1-c1ccncc1 [MILRINONE] | Not Active | Not Active | Not Active | Not Active | Not Active | Not Active | Not Active | Not Active |  |  |  | 
5 | C1CCN2C[C@@H]3C[C@@H](CN4CCCC[C@@H]34)[C@H]2C1 [SPARTEINE] | Not Active | Not Active | Not Active | Not Active | Not Active | Not Active | Not Active | Not Active |  |  |  | 
6 | Cc1cnc(NC(=O)C2=C(O)c3ccccc3S(=O)(=O)N2C)s1 [MELOXICAM] | Not Active | Not Active | Not Active | Not Active | Not Active | Not Active | Not Active | Not Active |  |  |  | 
7 | CO[C@@]12[C@H](COC(N)=O)C3=C(C(=O)C(C)=C(N)C3=O)N1C[C@@H]1N[C@@H]12 [MITOMYCIN] | Not Active | Not Active | Not Active | Not Active | Not Active | Not Active | Not Active | Not Active |  |  |  | 
8 | CC(Cl)(Cl)Cl [TRICHLOROETHANE] | Not Active | Not Active | Not Active | Not Active | Not Active | Not Active | Not Active | Not Active |  |  |  | 
9 | O=[As][O-].[Na+] [SODIUM ARSENITE] | Not Active | Not Active | Not Active | Not Active | Not Active | Not Active | Not Active | Not Active |  |  |  | 
10 | Cc1ccc(Cl)c(Nc2ccccc2C(=O)O)c1Cl [MECLOFENAMIC ACID] | Not Active | Not Active | Not Active | Not Active | Not Active | Not Active | Not Active |  |  |  | 3.14 µM | 
11 | Cc1ccc(S(=O)(=O)NC(=O)NN2CCCCCC2)cc1 [TOLAZAMIDE] | Not Active | Not Active | Not Active | Not Active | Not Active | Not Active | Not Active | Not Active |  |  |  | 
12 | O=C(O)c1cc(/N=N/c2ccc(S(=O)(=O)Nc3ccccn3)cc2)ccc1O [SULFASALAZINE] |  | Not Active | Not Active | Not Active | Not Active | Not Active | Not Active |  |  |  | 6.33 µM | 17 µM
13 | CC(=O)O[C@]1(C(C)=O)CC[C@H]2[C@@H]3C[C@H](C)C4=CC(=O)CC[C@]4(C)[C@H]3CC[C@@]21C [MEDROXYPROGESTERONE ACETATE] | Not Active | Not Active | Not Active | Not Active | Not Active | Not Active | Not Active | Not Active |  |  |  | 
14 | CC[C@H](C)C(=O)O[C@H]1CCC=C2C=C[C@H](C)[C@H](CC[C@@H]3C[C@@H](O)CC(=O)O3)[C@H]21 [MEVASTATIN] | Not Active | Not Active | Not Active | Not Active | Not Active | Not Active | Not Active | Not Active |  |  |  | 
15 | CCN(CC)CCNC(=O)c1cc(Cl)c(N)cc1OC [METOCLOPRAMIDE] | Not Active | Not Active | Not Active | Not Active | Not Active | Not Active | Not Active | Not Active |  |  |  | 
16 | Cc1nnc(NS(=O)(=O)c2ccc(N)cc2)s1 [SULFAMETHIZOLE] | Not Active | Not Active | Not Active | Not Active | Not Active | Not Active | Not Active | Not Active |  |  |  | 
17 | CCC(C)(C)C(=O)O[C@H]1C[C@@H](C)C=C2C=C[C@H](C)[C@H](CC[C@@H]3C[C@@H](O)CC(=O)O3)[C@H]21 [SIMVASTATIN] | Not Active | Not Active | Not Active | Not Active | Not Active | Not Active | Not Active | Not Active |  |  |  | 
18 | CN1C(=O)OC(C)(C)C1=O [TRIMETHADIONE] | Not Active | Not Active | Not Active | Not Active | Not Active | Not Active | Not Active | Not Active |  |  |  | 
19 | CC[C@H](C)[C@@H](CO[C@@H](Cc1ccccc1)C(=O)N[C@@H](CCS(C)(=O)=O)C(=O)OC(C)C)NC[C@@H](N)CS | Not Active |  |  | Not Active | Not Active | Not Active | Not Active | Not Active | 3.57 µM | 3.17 µM |  | 
20 | OC[C@@H](O)[C@@H](O)[C@H](O)[C@H](O)CO [MANNITOL] | Not Active | Not Active | Not Active | Not Active | Not Active | Not Active | Not Active | Not Active |  |  |  | 
21 | Cc1cn([C@H]2C=C[C@@H](CO)O2)c(=O)[nH]c1=O [STAVUDINE] | Not Active | Not Active | Not Active | Not Active | Not Active | Not Active | Not Active | Not Active |  |  |  | 
22 | C[N+]1(C)[C@@H]2C[C@@H](OC(=O)[C@H](CO)c3ccccc3)C[C@H]1[C@@H]1O[C@@H]12.[Br-] [METHSCOPOLAMINE BROMIDE] | Not Active | Not Active | Not Active | Not Active | Not Active | Not Active | Not Active | Not Active |  |  |  | 
23 | CC1=C(/C=C/C(C)=C/C=C/C(C)=C/C(=O)O)C(C)(C)CCC1 [TRETINOIN] | Not Active | Not Active | Not Active | Not Active | Not Active | Not Active | Not Active |  |  |  | 0.576 µM | 
